# From the supplement of paper PMC10331698
# ± gives the standard deviation of the averaged measurements.
# Key:
# Assay in all cases: level (log10 ratio to DMSO vehicle control); higher = higher biomarker level / cell amount than vehicle control
# Settings in all cases: in DMSO
# [1] = compound: FC(F)(F)C(F)(F)CNCC(F)(F)C(F)(F)F [Bis(1H,1H-perfluoropropyl)amine]
# Protocol: (§1)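 BioMAP Diversity Plus panel of 12 human primary cell co-culture systems (3C, 4H, LPS, SAg, BT, BF4T, BE3C, CASM3C, HDF3CGF, KF3CT, MyoF, Mphg). Compounds were added 1 h before stimulation and left for 24 h (MyoF 48 h; BT 72 h for soluble read-outs or 6 d for IgG). Biomarkers were read by ELISA, cytotoxicity by SRB, PBMC viability and proliferation by Alamar Blue. Each well value was divided by the mean of 8 DMSO control wells on the same plate and log10 transformed; duplicate blinded samples were tested at 4 concentrations.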
# [2] = compound: O=C(O)C(F)(F)C(F)(F)C(F)(F)C(F)(F)C(F)(F)C(F)(F)C(F)(F)C(F)(F)C(F)(F)C(F)F [11-H-Perfluoroundecanoic acid]
# Protocol: as §1
# [3] = compound: FC(F)(F)C(F)(F)C(F)(F)CI [Heptafluorobutyl iodide]
# Protocol: as §1
# [4] = compound: NC(=O)C(F)(F)C(F)(F)C(F)(F)C(F)F
# Protocol: as §1
# [5] = compound: C=C(C)C(=O)OCCC(F)(F)C(F)(F)C(F)(F)C(F)(F)C(F)(F)C(F)(F)F [6:2 Fluorotelomer methacrylate]
# Protocol: as §1
# [6] = compound: COC(=O)C(F)(F)C(F)(F)OC(F)(C(F)(F)F)C(F)(F)OC(F)=C(F)F [Methyl perfluoro(3-(1-ethenyloxypropan-2-yloxy)propanoate)]
# Protocol: as §1
# [7] = compound: NS(=O)(=O)C(F)(F)C(F)(F)C(F)(F)C(F)(F)C(F)(F)C(F)(F)F [Perfluorohexanesulfonamide]
# Protocol: as §1
Test System,level (log10) ([1]; 6700 nM),level (log10) ([1]; 20000 nM),level (log10) ([1]; 60000 nM),level (log10) ([2]; 6700 nM),level (log10) ([2]; 20000 nM),level (log10) ([3]; 6700 nM),level (log10) ([3]; 20000 nM),level (log10) ([3]; 60000 nM),level (log10) ([4]; 6700 nM),level (log10) ([4]; 20000 nM),level (log10) ([4]; 60000 nM),level (log10) ([5]; 6700 nM),level (log10) ([5]; 20000 nM),level (log10) ([5]; 60000 nM),level (log10) ([6]; 6700 nM),level (log10) ([6]; 20000 nM),level (log10) ([7]; 6700 nM),level (log10) ([7]; 20000 nM),level (log10) ([7]; 60000 nM)
LPS:CD141/Thrombomodulin,0.046 ± 0.088,0.0005 ± 0.14,-0.0095 ± 0.096,0.0875 ± 0.057,0.051 ± 0.092,0.0135 ± 0.14,0.0175 ± 0.14,0.0485 ± 0.1,-0.037 ± 0.023,-0.0225 ± 0.028,-0.02 ± 0.021,-0.039 ± 0.025,-0.0465 ± 0.04,-0.091 ± 0.017,-0.05 ± 0.0099,-0.071 ± 0.027,-0.0155 ± 0.0092,-0.017 ± 0.017,-0.0095 ± 0.028
LPS:CD142/Tissue Factor,0.019 ± 0.073,-0.007 ± 0.099,0.0095 ± 0.13,0.012 ± 0.034,-0.033 ± 0.041,-0.046 ± 0.1,-0.013 ± 0.082,0.0295 ± 0.043,-0.0215 ± 0.00071,0.005 ± 0.0028,-0.007 ± 0.0014,0.007 ± 0.09,0.0765 ± 0.043,0.0165 ± 0.098,-0.0235 ± 0.00071,0.009 ± 0.011,0.0095 ± 0.025,0.012 ± 0.0085,0.022 ± 0.0071
LPS:CXCL8/IL-8,-0.0185 ± 0.005,-0.0325 ± 0.037,0.017 ± 0.099,-0.0065 ± 0.023,0.016 ± 0.011,0.022 ± 0.13,0.042 ± 0.076,0.087 ± 0.0071,-0.0055 ± 0.0035,-0.0025 ± 0.035,0.016 ± 0.12,0.006 ± 0.014,0.023 ± 0.011,0.0455 ± 0.015,0.019 ± 0.0042,0.0355 ± 0.019,-0.005 ± 0.0071,-0.0015 ± 0.013,-0.034 ± 0.0071
MyoF:CXCL8/IL-8,-0.024 ± 0.0028,-0.003 ± 0.018,0.019 ± 0.033,-0.0375 ± 0.03,-0.071 ± 0.028,-0.0205 ± 0.0035,-0.0475 ± 0.0092,-0.0395 ± 0.011,-0.0285 ± 0.0092,-0.0185 ± 0.028,0.018 ± 0.054,-0.0055 ± 0.021,0.051 ± 0.0057,0.041 ± 0.0085,0.083 ± 0.04,0.154 ± 0.034,0.046 ± 0.068,0.024 ± 0.067,0.0085 ± 0.015
MyoF:Collagen I,-0.005 ± 0.0057,-0.014 ± 0.0099,0.0035 ± 0.015,-0.0625 ± 0.0092,-0.312 ± 0.023,-0.0015 ± 0.0035,-0.0195 ± 0.005,0.013 ± 0.018,-0.0115 ± 0.015,-0.002 ± 0.02,0.006 ± 0.017,-0.0085 ± 0.0092,-0.0095 ± 0.00071,-0.009 ± 0.0099,-0.007 ± 0.011,0.0095 ± 0.019,0.024 ± 0.013,0.0515 ± 0.013,0.0495 ± 0.022
MyoF:Collagen III,0.003 ± 0.016,0.0025 ± 0.005,-0.0035 ± 0.0092,-0.0405 ± 0.005,-0.475 ± 0.079,-0.0095 ± 0.019,-0.033 ± 0.013,-0.0205 ± 0.033,0.003,0.0135 ± 0.00071,-0.0065 ± 0.035,0.008 ± 0.027,0.012 ± 0.0057,0.006 ± 0.017,-0.0145 ± 0.013,-0.005 ± 0.0071,0.009 ± 0.0071,0.008 ± 0.0014,0.0025 ± 0.0035
MyoF:Collagen IV,-0.014 ± 0.03,-0.0275 ± 0.015,-0.008 ± 0.03,0.141 ± 0.0028,0.293 ± 0.034,-0.021 ± 0.0071,-0.0325 ± 0.016,-0.0185 ± 0.039,-0.0075 ± 0.0035,-0.007 ± 0.028,0.014 ± 0.038,-0.075 ± 0.11,-0.0395 ± 0.076,-0.02 ± 0.1,-0.0215 ± 0.04,-0.0235 ± 0.028,0.0555 ± 0.023,0.202 ± 0.025,0.408 ± 0.016
MyoF:Decorin,-0.005 ± 0.0071,-0.0065 ± 0.021,0.015 ± 0.034,0.0415 ± 0.077,0.052 ± 0.031,0.0045 ± 0.016,-0.016 ± 0.0071,0.005 ± 0.0042,0.012 ± 0.0085,-0.0035 ± 0.03,-0.009 ± 0.0085,-0.0045 ± 0.033,0.0325 ± 0.028,0.015 ± 0.0042,0.0595 ± 0.022,0.07 ± 0.017,0.0325 ± 0.076,-0.0095 ± 0.1,-0.03 ± 0.054
MyoF:MMP-1,-0.0065 ± 0.011,-0.01 ± 0.021,0.0245 ± 0.08,-0.076 ± 0.021,-0.027 ± 0.04,-0.022 ± 0.0099,-0.0545 ± 0.0078,-0.0125 ± 0.039,-0.018 ± 0.038,-0.034 ± 0.02,0.014 ± 0.028,0.043 ± 0.0042,0.045 ± 0.04,0.018 ± 0.038,0.021 ± 0.035,0.111 ± 0.084,-0.0285 ± 0.016,-0.0215 ± 0.0035,0.0495 ± 0.025
MyoF:PAI-I,-0.005 ± 0.011,0.007 ± 0.013,0.011 ± 0.0014,0.0105 ± 0.012,-0.013 ± 0.02,-0.0105 ± 0.0021,-0.005 ± 0.0028,0.007 ± 0.023,-0.0125 ± 0.013,-0.0125 ± 0.0064,0.005 ± 0.018,-0.0165 ± 0.015,-0.016 ± 0.0028,-0.0165 ± 0.005,0.0105 ± 0.0035,0.0315 ± 0.0078,0.021 ± 0.016,0.0285 ± 0.021,0.0575 ± 0.0078
